In one experiment the target is T1, LTD4 receptors (Cavia porcellus, UniProt Q2NNR5).
T1 construct: A section of terminal ileum was removed, the lumen cleaned, and the tissue divided into 2.5 cm segments; from tissue; host or cells: ileum and trachea of guinea pig (ileum: male Hartley)
T1 sequence (Q2NNR5 1-340): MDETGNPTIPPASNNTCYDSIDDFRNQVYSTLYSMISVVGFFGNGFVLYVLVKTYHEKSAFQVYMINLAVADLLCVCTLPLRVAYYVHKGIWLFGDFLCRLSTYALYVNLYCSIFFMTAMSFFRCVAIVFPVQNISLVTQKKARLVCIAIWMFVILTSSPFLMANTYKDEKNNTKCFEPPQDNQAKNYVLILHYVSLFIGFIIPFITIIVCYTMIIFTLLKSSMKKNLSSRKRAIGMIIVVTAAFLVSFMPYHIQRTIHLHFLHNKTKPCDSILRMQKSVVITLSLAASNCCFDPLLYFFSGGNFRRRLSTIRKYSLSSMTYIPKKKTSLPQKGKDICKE
In words: Antagonism of LTD4 (guinea pig ileum and trachea, pA2). As to conditions: *Estimated; negative log of KB; antagonist 30 minute incubation. The protocol: Male, Hartley guinea pigs weighing 200-450 grams were killed by decapitation. A section of terminal ileum was removed, the lumen cleaned, and the tissue divided into 2.5 cm segments. The ilea were mounted in 10 ml tissue baths containing Krebs-bicarbonate solution of the following composition in mmoles/liter: KCl, 4.6; CaCl2 ·2H2 O, 1.2; KH2 PO4, 1.2; MgSO4 ·7H2O, 1.2; NaCl, 118.2; NaHCO3, 24.8; and dextrose, 10.0. The bath fluid was maintained at 37° C. and aerated with 95 percent oxygen and 5 percent CO2 In addition, the buffer contained 1×10^-6 M atropine to reduce ileal spontaneous activity. Isometric measurements were made with a Grass FT03C. force-displacement transducer and recorded on a Grass polygraph as change in grams of force. A passive force of 0.5 g was applied to the tissues. After an appropriate equilibration period, single submaximal control responses to pure LTD4 were obtained. Following a five minute exposure of the ileum to an experimental drug, the control concentration of LTD4 was added to the tissue bath. The response of the ileum to LTD4 in the presence of the drug was compared to the response in the absence of the drug.
A more detailed analysis of LTD4 antagonism was then made. In these experiments, cumulative concentration-response curves were obtained to LTD4 in guinea pig ileum and trachea. This was followed by a 30 minute incubation with various concentrations of the experimental drug. The concentration response curve to LTD4 was then repeated in the presence of the antagonist. Only one concentration of antagonist was used on a single tissue. KB values were calculated by the method of Furchgott [Ann. N.Y. Acad. Sci., 139, 553 (1967)] using the following equation. [formula]
Dose ratio refers to the concentration of agonist required to elicit 50 percent of the maximal response ED50) in the presence of the antagonist divided by the ED50 in the absence of the antagonist.

In experiment [1] the test system is LTB4 induced cell aggregation (neutrophils). In words: LTB4 Induced Aggregation Assay (neutrophils). It counts as cell-based, guinea pig. As to conditions: Cavia porcellus, Neutrophil; for inhibition at 10 µM: drug concentration 10^-5 M; for inhibition at 1 µM: drug concentration 10^-6 M; for inhibition at 0.1 µM: drug concentration 10^-7 M. The protocol:
Neutrophils were elicited by intraperitoneally injecting 20 ml of Dulbecco's calcium and magnesium deficient phosphate buffered saline (PBS) containing 2% oyster glycogen into each of two male Hartley guinea pigs. Eighteen hours later, cells accumulating in the peritoneal cavity were harvested by washing the peritoneum with approximately 100 ml of PBS containing 10 units/ml of heparin. The cells were centrifuged at 200 g for 8 min. and the supernatant fluid discarded. Erythrocytes present in the pellet were lyzed by vigorous agitation of the cells in 9 ml of ice-cold distilled water for approximately 30 seconds. Physiological osmolarity was restored by adding 1.5 ml of 0.6 M KCl. Twelve milliliters of PBS were added and the resuspended cells centrifuged at 200 g for 8 min. at 4°. The pellet was resuspended in 5 ml PBS. The cell concentration was determined and additional buffer added to make the concentration […]; cells per ml.
The aggregation assay was carried out by measuring the amount of LTB4 induced cell aggregation with a Payton single channel aggregometer, model 300B. The apparatus was calibrated by placing a cuvette containing the cell suspension in it and adjusting the zero knob so that the recorder pen rested at 1 mV. A cuvette containing 20% less cells was then inserted into the aggregometer and the output knob adjusted so that the recorder pen rested at 9 mV. With these settings an 8 mV change causes the recorder pen to move 200 mm. When conducting an assay, 0.5 ml of cell suspension (5×10^6 cells) was added to each cuvette. Five microliters of a solution of test compound were then added. Most compounds were initially dissolved in DMSO at 1×10^-2 M and then diluted appropriately with PBS so that the test compound concentration was 1×10^-5 to 1×10^-7 M and the test DMSO concentration was 0.1% or less. A few of the more water insoluble compounds were first dissolved in DMSO at 1 to 6×10^-3 M and then diluted appropriately with PBS. The test concentration of DMSO was never higher than 1%. After a 2 minute equilibration period of cells and test compound, 5 μl of a solution containing CaCl2 (100 mM) and MgCl2 (50 mM) were added. One minute later, 5 μ l of PBS containing LTB4 (3×10^-7 M) were added. The change occurring in the amount of light transmitted during the subsequent minute was measured. […] During a typical experiment, several measurements of the amount of aggregation induced by LTB4 were made and an average value determined. The effect of a test compound on this aggregation was determined by the following formula: [formula]

In experiment [2] the target is T2, specific receptor on the membrane of human neutrophils (leukotriene B4) (Homo sapiens, UniProt Q15722).
T2 construct: Freshly-prepared buffy coat layers from two individuals were obtained from a local blood donor center; endogenous in cells; host or cells: intact human peripheral blood neutrophils from buffy coats of two donors
In words: Inhibition of Binding of ^3 H-LTB4 to Peripheral Human Neutrophils. The note with it: read-out: LTB4 Binding Inhibition. The protocol:
Cells used in the assay were isolated by standard techniques of centrifugation on Ficoll-Hypaque, dextran 70 sedimentation and hypotonic lysis. The following procedure was used. Freshly-prepared buffy coat layers from two individuals were obtained from a local blood donor center. The cells were mixed and diluted to 484 ml with phosphate buffered saline containing heparin (10 units/ml) and heat-inactivated calf serum (5%). This was divided into 20 ml aliquots and the aliquots layered on top of Ficoll-Paque (12 ml). The material was then centrifuged at 500 g for 40 minutes at room temperature. The resulting upper layer of platelets and mononuclear cells was discarded. The lower layer containing erythrocytes and neutrophils was retained. Buffer was added (1 ml per 4 ml of lower layer) and the suspension mixed. For each milliliter of this mixture, 0.33 ml of 6% Macrodex was added. After stirring, the cells were allowed to sediment for 1 hour at 37° C. The resulting erythrocyte pellet was discarded and the neutrophil enriched supernatant fluid centrifuged at 500 g for 10 minutes at 4° C. Erythrocytes still present in this cell pellet were lysed by incubating the cells with 5-8 ml ice-cold distilled water for 30-45 seconds. Subsequently, the volume was made up to 50 ml by addition of ice-cold buffer and the cells resuspended. The suspension was then centrifuged at 300 g for 10 minutes at 4° C. The cells were finally resuspended at a cell density of 2×10^7 cells/ml in the assay buffer This buffer consisted of Hanks' balanced salt solution and 0.1% ovalbumin (pH 7.3).
The amount of bound ^3 H-LTB4 was then measured and compared with the amount bound in the absence of test compound. The assay was carried out in microcentrifuge tubes by adding first 10 μl test compound dissolved in DMSO, followed by adding 20 μl ^3 H-LTB4 diluted in assay buffer, and finally adding 500 μl of the cell suspension. At the end of the 10 minutes incubation, 300 μl of a mixture of dibutyl and dinonyl phthalate (7:2) were added and the tubes centrifuged for 2 minutes in a microcentrifuge. The radioactivity bound to the cell pellet was measured by scintillation spectroscopy. Appropriate corrections for nonspecific bonding of ^3 H-LTB4 were made.

Setting [3] is: drug concentration 10^-5 M, 0.1-0.2 nM ^3 H-LTB4, 10 minutes at 4° C.
[4] abbreviates: drug concentration 10^-6 M, 0.1-0.2 nM ^3 H-LTB4, 10 minutes at 4° C.
The mark [5] stands for this setting: drug concentration 10^-7 M, 0.1-0.2 nM ^3 H-LTB4, 10 minutes at 4° C.

Read-outs that look alike come from different tables or passages of the source.

T2 sequence (Q15722 whole entry): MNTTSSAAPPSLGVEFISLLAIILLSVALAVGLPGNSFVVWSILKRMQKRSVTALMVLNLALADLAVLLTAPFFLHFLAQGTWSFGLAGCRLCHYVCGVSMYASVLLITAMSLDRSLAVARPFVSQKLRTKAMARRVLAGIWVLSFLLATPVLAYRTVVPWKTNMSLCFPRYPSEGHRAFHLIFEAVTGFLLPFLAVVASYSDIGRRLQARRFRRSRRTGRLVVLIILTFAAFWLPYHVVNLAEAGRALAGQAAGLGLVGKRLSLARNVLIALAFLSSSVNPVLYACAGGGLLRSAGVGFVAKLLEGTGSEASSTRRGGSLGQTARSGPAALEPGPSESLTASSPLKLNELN

As usually defined, the Kb is the affinity of an antagonist, worked out from how it opposes an agonist. Turning to `CCCCCCCCCCOc1ccc(C(=O)c2cccc(C(=O)OCC)c2)cc1CCCC(=O)OCC` [Example 7, 2-(Decyloxy)-5-[3-(ethoxycarbonyl)benzoyl]benzenebutanoic acid, ethyl ester], on LTD4 receptors, the Kb was 158 nM.

Broadly, the inhibition is the change of the read-out against control, counted positive when it falls. As for `CCCCCCCCCCOc1ccc(C(=O)c2cccc(C(=O)O)c2)cc1CCCC(=O)O` [Example 23, 5-(3-Carboxybenzoyl)-2-(decyloxy)benzenebutanoic acid], the inhibition at 10 µM was 92% in experiment [1] and 87% in experiment [2] (setting [3]). Besides, the inhibition at 1 µM in experiment [1] was determined as 46%; in experiment [2] (setting [4]) it was 52%. The inhibition at 0.1 µM in experiment [2] (setting [5]) is 4%.

In the case of `CCCCCCCCCCOc1ccc(C(=O)c2cccc(Cc3nnn[nH]3)c2)cc1CCC(=O)O` [Example 25, 2-(Decyloxy)-5-[3-(1H-tetrazol-5-ylmethyl)benzoyl]benzenepropanoic acid], the Kb at LTD4 receptors was 631 nM.

Take `CCCCCCCCCCOc1ccc(C(O)c2cccc(C(=O)O)c2)cc1CCC(=O)O` (stereo not drawn) [Example 46, 5-[(3--Carboxyphenyl)hydroxymethyl]-2-(decyloxy)benzenepropanoic acid]: the inhibition at 1 µM was determined as 73% in experiment [1] and 55% in experiment [2] (setting [4]). The inhibition at 0.1 µM in experiment [1] was determined as 7%; in experiment [2] (setting [5]) it was 13%. Also, in experiment [2] (setting [3]), the inhibition at 10 µM came to 91%.

Take `CCCCCCCCCCOc1ccc(C(O)c2ccc(C(=O)O)cc2)cc1CC(=O)O` (stereo not drawn) [Example 47, 5-[(4-Carboxyphenyl)hydroxymethyl]-2-(decyloxy)benzeneacetic acid]: the inhibition at 10 µM in experiment [1] stood at 80%; in experiment [2] (setting [3]), 59%. Besides, the figures for the inhibition at 1 µM in experiment [1] and in experiment [2] (setting [4]) were 50% and 2%, respectively. Moreover, in experiment [1], the inhibition at 0.1 µM worked out at 2%.

For the molecule `C=C(c1cccc(C(=O)O)c1)c1ccc(OCCCCCCCCCC)c(CCC(=O)O)c1` [Example 54, 5-[1-(3-Carboxyphenyl)ethenyl]-2-(decyloxy)benzenepropanoic acid], the values for the inhibition at 1 µM in experiment [1] and in experiment [2] (setting [4]) were 88% and 37%, respectively. The values for the inhibition at 0.1 µM in experiment [1] and in experiment [2] (setting [5]) were 12% and -3%, respectively. In addition, in experiment [2] (setting [3]), the inhibition at 10 µM stood at 71%.

As to `O=C(O)CCc1cc(C(=O)c2cccc(C(=O)O)c2)ccc1OCCCCCCc1ccccc1` [Example 75, 5-(3-Carboxybenzoyl)-2-[6-(phenylhexyl)-oxy]benzenepropanoic acid], the inhibition at 10 µM in experiment [1] was determined as 93%; in experiment [2] it was 97%. Further, the inhibition at 1 µM is 69% in experiment [1] and 82% in experiment [2] (setting [4]). Further, the inhibition at 0.1 µM was determined as 15% in experiment [1] and 36% in experiment [2] (setting [5]).

On to `COc1ccc(C=CCCCCOc2ccc(C(=O)c3cccc(C(=O)O)c3)cc2CCC(=O)O)cc1` [Example 79, 5-(3-Carboxybenzoyl)-2-{[6-(4-methoxyphenyl)-5-hexenyl]oxy}benzenepropanoic acid], for which, in experiment [1], the inhibition at 10 µM is 92%, the inhibition at 1 µM was found to be 87% and the inhibition at 0.1 µM was 46%. For the same molecule, in experiment [2], the inhibition at 0.1 µM was found to be 92%, the inhibition at 1 µM is 97% and the inhibition at 10 µM stood at 100%.

For `O=C(O)CCc1cc(C(=O)c2cccc(C(=O)O)c2)ccc1OCCCCCCc1ccc(Cl)cc1` [Example 81, 2-{[6-(4-Chlorophenyl)hexyl]oxy}-5-(3-carboxybenzoyl)benzenepropanoic acid], the inhibition at 10 µM was 76% in experiment [1] and 106% in experiment [2] (setting [3]). Moreover, the results for the inhibition at 1 µM in experiment [1] and in experiment [2] (setting [4]) were 63% and 91%, respectively. Moreover, the figures for the inhibition at 0.1 µM in experiment [1] and in experiment [2] (setting [5]) were 8% and 42%, respectively.

For `C[S+]([O-])c1ccc(C=CCCCCOc2ccc(C(=O)c3cccc(C(=O)O)c3)cc2CCC(=O)O)cc1` (stereo not drawn) [Example 90, 5-(3-Carboxybenzoyl)-2-{[6-(4-methylsulfinylphenyl)-5-hexenyl]oxy}benzenepropanoic acid], the inhibition at 10 µM in experiment [1] stood at 85%; in experiment [2] (setting [3]), 98%. In addition, the values for the inhibition at 1 µM in experiment [1] and in experiment [2] (setting [4]) were 79% and 96%, respectively. Further, the inhibition at 0.1 µM in experiment [1] was 9%; in experiment [2] (setting [5]), 90%.

In the case of `CC(=O)c1ccc(CCCCCCOc2ccc(C(=O)c3cccc(C(=O)O)c3)cc2CCC(=O)O)cc1` [Example 101, 2-{[6-(4-Acetylphenyl)hexyl]oxy}-5-(3-carboxybenzoyl]benzenepropanoic acid], the inhibition at 1 µM in experiment [2] (setting [4]) amounted to 88%. In experiment [2] (setting [5]), the inhibition at 0.1 µM turned out to be 46%.

Regarding `O=C(O)CCc1cc(NC(=O)c2cccc(C(=O)O)c2)ccc1OCCCCCCc1ccccc1` [Example 102], the inhibition at 10 µM in experiment [2] (setting [3]) stood at 98%. Besides, in experiment [2] (setting [4]), the inhibition at 1 µM was determined as 72%. The inhibition at 0.1 µM in experiment [2] (setting [5]) was 18%.

Values taken from patent US5171882A, “Leukotriene antagonists” (Eli Lilly and Company, priority 1990, dated 1992).
